Values quoted from earlier work, collected in patent US10010080B2, “Process for the production of partially polymerized antimicrobial silanol quaternary ammonium compounds” (Indusco, Ltd., priority 2015, dated 2018).

Details: Dow Corning material safety data sheet

## CO[Si](CCCCl)(OC)OC [CPTMS, chloropropyptrimethoxy silane]
  time weighted average (TWA) for human exposure: 0.1 part per million
